As a reminder, the IC50 is the midpoint of a concentration-inhibition curve. The term T/C denotes the ratio of treated to control. A word on the half-life: it is the time needed for the level to fall by half in the phase considered.

Activity calls are given as the source filed them.

This note sets out measurements from ChEMBL document CHEMBL5046291, “Evodiamine-Inspired Topoisomerase-Histone Deacetylase Dual Inhibitors: Novel Orally Active Antitumor Agents for Leukemia Therapy” (J Med Chem, 2022).

For one series, the target named is Histone deacetylase 3 (Homo sapiens, UniProt O15379). Briefly: Inhibition of recombinant His-tagged human HDAC3 expressed in baculovirus infected insect cells using Ac-Leu-Gly-Lys(Ac)-AMC as substrate preincubated for 5 mins followed by substrate addition and further incubated for 30 mins by fluorescence based microtiter plate reader assay.
Sequence of Histone deacetylase 3 (O15379 whole entry): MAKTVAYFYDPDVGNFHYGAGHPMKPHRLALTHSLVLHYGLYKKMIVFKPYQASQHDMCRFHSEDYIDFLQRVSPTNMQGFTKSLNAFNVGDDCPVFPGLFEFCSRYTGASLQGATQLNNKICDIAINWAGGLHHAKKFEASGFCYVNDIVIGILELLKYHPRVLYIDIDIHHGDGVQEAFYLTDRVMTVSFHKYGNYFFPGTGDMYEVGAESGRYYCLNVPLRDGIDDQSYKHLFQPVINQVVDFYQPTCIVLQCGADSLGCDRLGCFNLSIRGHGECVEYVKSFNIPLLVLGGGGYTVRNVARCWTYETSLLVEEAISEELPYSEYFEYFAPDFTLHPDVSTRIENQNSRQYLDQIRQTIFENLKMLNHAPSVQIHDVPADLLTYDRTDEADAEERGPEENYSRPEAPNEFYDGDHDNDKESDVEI
Series [1] has as its target T1, Histone deacetylase 2 (Homo sapiens, UniProt Q92769). Briefly: Inhibition of HDAC2 in HEL cells assessed as increase in acetyl-H4 levels at 20 to 100 nM incubated for 24 hrs by western blot analysis. As to conditions: dose 20-100 nM. It is filed as cell-based.
The subject of another series is HCT-116. Put plainly: Antiproliferative activity against human HCT-116 cells assessed as cell growth inhibition incubated for 8 hrs by CCK8 assay. It counts as functional, cell-based. The note with it: HCT-116, 8 h.
The target of series [2] is T2, Histone deacetylase 1 (Homo sapiens, UniProt Q13547). Briefly: Inhibition of HDAC1 in HEL cells assessed as increase in acetyl-H3 levels at 20 to 100 nM incubated for 24 hrs by western blot analysis. It is filed as cell-based. As to conditions: dose 20-100 nM. (In general: In western blotting, separated proteins are transferred to a membrane and probed.)
T2 sequence (Q13547 whole entry): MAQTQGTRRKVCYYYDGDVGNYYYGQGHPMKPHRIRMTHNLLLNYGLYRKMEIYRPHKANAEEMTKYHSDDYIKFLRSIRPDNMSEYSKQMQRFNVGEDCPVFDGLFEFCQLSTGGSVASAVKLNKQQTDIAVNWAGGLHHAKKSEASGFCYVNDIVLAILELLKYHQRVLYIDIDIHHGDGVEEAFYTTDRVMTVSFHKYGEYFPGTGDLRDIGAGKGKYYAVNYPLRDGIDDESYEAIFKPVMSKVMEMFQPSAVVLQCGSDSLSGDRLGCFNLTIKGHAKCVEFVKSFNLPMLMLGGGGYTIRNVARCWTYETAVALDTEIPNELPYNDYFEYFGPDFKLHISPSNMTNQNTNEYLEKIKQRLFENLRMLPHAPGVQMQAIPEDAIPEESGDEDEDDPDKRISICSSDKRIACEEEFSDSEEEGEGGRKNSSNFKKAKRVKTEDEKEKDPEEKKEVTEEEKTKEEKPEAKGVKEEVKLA
The next series deals with A549. Briefly: Antiproliferative activity against human A549 cells assessed as cell growth inhibition incubated for 8 hrs by CCK8 assay. It counts as functional, cell-based. The note with it: A549, 8 h.
A further series concerns MCF7. Briefly: Antiproliferative activity against human MCF7 cells assessed as cell growth inhibition incubated for 8 hrs by CCK8 assay. It is filed as functional, cell-based. As to conditions: MCF7, 8 h.
Series [3] has as its target DNA topoisomerase 2-alpha (Homo sapiens) (UniProt P11388). Briefly: Inhibition of recombinant Top2 (unknown origin) assessed as inhibition of relaxation of supercoiled pBR322 plasmid DNA at 50 uM incubated for 15 mins by ethidium bromide staining based agarose gel electrophoresis analysis.
The subject of series [4] is HEL. Briefly: Antiproliferative activity against HEL cells assessed as cell growth inhibition incubated for 8 hrs by CCK8 assay. As to conditions: Homo sapiens. It is filed as functional, cell-based. In general terms: Formazan colour is commonly taken as a measure of viable cells.
The target of series [5] is DNA topoisomerase 2-alpha (Homo sapiens) (UniProt P11388). Put plainly: Inhibition of recombinant Top2 (unknown origin) assessed as inhibition of relaxation of supercoiled pBR322 plasmid DNA at 100 uM incubated for 15 mins by ethidium bromide staining based agarose gel electrophoresis analysis.
Sequence of DNA topoisomerase 2-alpha (Homo sapiens) (P11388 whole entry): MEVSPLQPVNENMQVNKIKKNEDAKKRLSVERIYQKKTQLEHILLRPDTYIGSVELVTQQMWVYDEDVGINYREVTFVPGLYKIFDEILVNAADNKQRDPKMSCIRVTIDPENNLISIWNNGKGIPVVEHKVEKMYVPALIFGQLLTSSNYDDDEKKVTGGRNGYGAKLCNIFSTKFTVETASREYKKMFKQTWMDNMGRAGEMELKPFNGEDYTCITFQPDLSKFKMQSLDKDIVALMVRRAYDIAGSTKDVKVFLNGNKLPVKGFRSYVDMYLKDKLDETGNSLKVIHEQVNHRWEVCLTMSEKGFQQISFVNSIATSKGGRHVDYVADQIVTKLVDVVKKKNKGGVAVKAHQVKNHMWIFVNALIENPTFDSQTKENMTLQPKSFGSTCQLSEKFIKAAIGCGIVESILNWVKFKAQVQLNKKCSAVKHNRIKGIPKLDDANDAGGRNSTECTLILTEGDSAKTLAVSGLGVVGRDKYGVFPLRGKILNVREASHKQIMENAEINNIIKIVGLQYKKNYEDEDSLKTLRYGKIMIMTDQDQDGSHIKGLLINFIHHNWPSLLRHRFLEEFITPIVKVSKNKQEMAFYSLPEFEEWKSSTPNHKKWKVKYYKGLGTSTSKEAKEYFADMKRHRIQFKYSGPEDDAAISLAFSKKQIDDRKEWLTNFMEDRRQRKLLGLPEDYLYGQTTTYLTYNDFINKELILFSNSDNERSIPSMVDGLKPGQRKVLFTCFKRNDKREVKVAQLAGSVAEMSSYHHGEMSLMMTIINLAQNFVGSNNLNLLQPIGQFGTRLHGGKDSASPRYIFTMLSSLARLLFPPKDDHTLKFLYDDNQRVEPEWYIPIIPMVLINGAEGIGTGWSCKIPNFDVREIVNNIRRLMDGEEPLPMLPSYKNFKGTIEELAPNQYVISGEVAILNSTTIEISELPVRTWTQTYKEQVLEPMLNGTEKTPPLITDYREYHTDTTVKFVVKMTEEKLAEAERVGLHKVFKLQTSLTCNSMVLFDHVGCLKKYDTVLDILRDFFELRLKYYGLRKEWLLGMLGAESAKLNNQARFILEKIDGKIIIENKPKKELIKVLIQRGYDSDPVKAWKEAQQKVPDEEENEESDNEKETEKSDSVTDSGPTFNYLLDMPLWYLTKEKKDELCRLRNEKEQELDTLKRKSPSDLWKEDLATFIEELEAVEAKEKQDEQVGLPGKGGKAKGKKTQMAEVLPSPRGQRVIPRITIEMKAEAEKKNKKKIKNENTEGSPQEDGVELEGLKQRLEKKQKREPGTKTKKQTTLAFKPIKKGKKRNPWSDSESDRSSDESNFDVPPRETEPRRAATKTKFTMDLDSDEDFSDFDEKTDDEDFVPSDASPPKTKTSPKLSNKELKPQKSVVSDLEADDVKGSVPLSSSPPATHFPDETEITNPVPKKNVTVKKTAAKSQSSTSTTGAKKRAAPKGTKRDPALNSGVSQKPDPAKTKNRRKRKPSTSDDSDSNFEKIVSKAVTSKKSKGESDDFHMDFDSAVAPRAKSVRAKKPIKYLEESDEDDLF
For series [6], the target named is T2, Histone deacetylase 1. Briefly: Inhibition of full-length recombinant human HDAC1 expressed in Baculovirus expression system using Ac-Leu-Gly-Lys(Ac)-AMC as substrate preincubated for 5 mins followed by substrate addition and further incubated for 30 mins by fluorescence based microtiter plate reader assay.
In series [7] the test system is HEL. Put plainly: Induction of apoptosis in HEL cells assessed as apoptotic cells at 0.5 uM incubated for 48 hrs by annexin V-FITC/PI staining based flow cytometry (reference value: 4.23%). It counts as functional, Homo sapiens. Background: A flow cytometer gives signals particle by particle.
Series [8] relates to HEL. Briefly: Induction of apoptosis in HEL cells assessed as apoptotic cells at 0.1 uM incubated for 48 hrs by annexin V-FITC/PI staining based flow cytometry (reference value: 3.95%). It is filed as functional, Homo sapiens.
A short description of series [9]: Metabolic stability in ICR mouse liver microsome assessed as clearance. It counts as ADME. As to conditions: microsomes.
For series [10], the system named is HEL. Put plainly: Antitumor activity against HEL cells xenografted in BALB/C mouse assessed as tumor growth inhibition at 10 mg/kg, po qd for 14 days consecutively by caliper method relative to control. It is filed as functional, Homo sapiens. The note with it: 336 h, time 14 day, read-out: TGI.
Series [11] can be described thus: Toxicity in BALB/C mouse xenografted with HEL cells assessed as change in body weight at 5 to 10 mg/kg, po qd for 14 days consecutively. It is filed as organism-based. The note with it: in vivo, 336 h, dose 5-10 mg/kg, time 14 day.
Series [12] relates to HEL. Put plainly: Induction of cell cycle arrest in HEL cells assessed as change in S-phase ratio at 0.1 uM incubated for 48 hrs by PI staining based flow cytometry relative to control. It is filed as functional, Homo sapiens.
The test system of series [13] is HEL. Put plainly: Antitumor activity against HEL cells xenografted in BALB/C mouse assessed as T/C value at 10 mg/kg, po qd for 14 days consecutively by caliper method relative to control. It is filed as functional, Homo sapiens. The note with it: time 14 day.
Series [14] deals with T2, Histone deacetylase 1. Briefly: In vivo inhibition of HDAC1 in HEL cells xenografted in BALB/C mouse assessed as upregulation of acetyl-H3 levels at 5 to 10 mg/kg by immunohistochemical staining method. As to conditions: dose 5-10 mg/kg. It is filed as functional, organism-based.
The subject of series [15] is HEL. Put plainly: Antitumor activity against HEL cells xenografted in BALB/C mouse assessed as T/C value at 5 mg/kg, po qd for 14 days consecutively by caliper method relative to control. The note with it: time 14 day. It is filed as functional, Homo sapiens.
The test system of series [16] is HEL. Briefly: Induction of cell cycle arrest in HEL cells assessed as change in S-phase ratio at 0.02 uM incubated for 48 hrs by PI staining based flow cytometry relative to control. It is filed as functional, Homo sapiens.
Series [17] is described as follows: Toxicity in BALB/C mouse xenografted with HEL cells assessed as animal death at 5 to 10 mg/kg, po qd for 14 days consecutively. It counts as organism-based. As to conditions: in vivo, 336 h, dose 5-10 mg/kg, time 14 day.
In series [18] the test system is HEL. Briefly: Induction of cell cycle arrest in HEL cells assessed as change in S-phase ratio at 0.5 uM incubated for 48 hrs by PI staining based flow cytometry relative to control. It counts as functional, Homo sapiens.
The test system of series [19] is HEL. Put plainly: Antitumor activity against HEL cells xenografted in BALB/C mouse assessed as tumor growth inhibition at 5 mg/kg, po qd for 14 days consecutively by caliper method relative to control. It is filed as functional, Homo sapiens. As to conditions: 336 h, time 14 day, read-out: TGI.
Series [20] has as its target T1, Histone deacetylase 2. Briefly: In vivo inhibition of HDAC2 in HEL cells xenografted in BALB/C mouse assessed as upregulation of acetyl-H4 levels at 5 to 10 mg/kg by immunohistochemical staining method. It is filed as functional, organism-based. As to conditions: dose 5-10 mg/kg.
Series [21] in a line: Metabolic stability in ICR mouse liver microsome assessed as half life. It is filed as ADME. As to conditions: liver microsomes.
Series [22] deals with Histone deacetylase (Homo sapiens) (UniProt Q13547+O15379+Q9UBN7+Q92769+Q9UQL6+Q8WUI4+Q9BY41+Q96DB2+P56524+Q9UKV0+Q969S8). Put plainly: In vivo inhibition of HDAC in HEL cells xenografted in BALB/C mouse assessed as upregulation of caspase-9 levels at 5 to 10 mg/kg by immunohistochemical staining method. It is filed as functional, organism-based. The note with it: dose 5-10 mg/kg.

T1 sequence (Q92769 whole entry): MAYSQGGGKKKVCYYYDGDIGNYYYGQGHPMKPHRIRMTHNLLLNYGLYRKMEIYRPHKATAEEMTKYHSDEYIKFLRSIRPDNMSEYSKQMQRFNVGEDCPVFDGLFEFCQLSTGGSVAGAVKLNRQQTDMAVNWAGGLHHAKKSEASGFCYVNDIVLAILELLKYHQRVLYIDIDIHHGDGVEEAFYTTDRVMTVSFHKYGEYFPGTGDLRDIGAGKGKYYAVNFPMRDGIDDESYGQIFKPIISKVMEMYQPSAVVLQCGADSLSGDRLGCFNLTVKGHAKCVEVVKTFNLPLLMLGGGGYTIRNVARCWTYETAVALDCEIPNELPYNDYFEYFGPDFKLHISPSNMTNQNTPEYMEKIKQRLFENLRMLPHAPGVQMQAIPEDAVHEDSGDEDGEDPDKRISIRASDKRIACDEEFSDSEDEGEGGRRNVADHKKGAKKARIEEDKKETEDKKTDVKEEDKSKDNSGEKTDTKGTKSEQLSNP

For `CN1c2ccc(F)cc2C(=O)N2CCc3c([nH]c4ccc(OCc5ccc(/C=C/C(=O)Nc6ccccc6N)cc5)cc34)C21` (stereo unspecified), the IC50 at Histone deacetylase 3 was 15000 nM; in the series with HCT-116, above 2000 nM; with A549 it was 930 nM; in the series with MCF7, above 2000 nM; in the series on HEL [4], 240 nM; at Histone deacetylase 1 [6] it was 320 nM. The inhibition entry (on Histone deacetylase 2 [1]; at Histone deacetylase 1 [2]; in series [3]; in series [5]) was “Active” each time.
For the molecule `CN1c2ccc(F)cc2C(=O)N2CCc3c([nH]c4ccc(OCc5ccc(/C=C/C(=O)NO)cc5)cc34)C21` (stereo unspecified), the Activity with HEL [7] is reported as 76.45%; in the series on HEL [8], 56.02%; in series [11], “Non-Toxic”; in the series on HEL [12] it was 15.4%; with HEL [16], 9.8%; in series [17] it was “Non-Toxic”. Moreover, the Activity in the series on HEL [18] was 25.8%. Further, the half-maximal inhibitory concentration (IC50) on Histone deacetylase 3 was 59 nM; with HCT-116, 210 nM; in the series on A549, 680 nM; with MCF7 it was above 2000 nM; in the series on HEL [4], 29 nM; on Histone deacetylase 1 [6], 36 nM. Further, the inhibition entry (at Histone deacetylase 2 [1]; on Histone deacetylase 1 [14]; on Histone deacetylase 1 [2]; in [3]; at Histone deacetylase 2 [20]; in series [22]) was “Active” each time. Further, the inhibition entry in series [5] was “Active”. Further, in [9], the CLH is 173 mL/min/kg. Also, in the series with HEL [10], the inhibition in vivo at 10 mg/kg is 68.5%. In addition, the T/C was determined as 25.5% in the series on HEL [13] and 54.3% in the series with HEL [15]. In the series on HEL [19], the inhibition in vivo at 5 mg/kg was 41.4%. Further, in series [21], the half-life amounted to 31.5 min.
